Columns and labels:
[1] = biological target: E2_340-Fc / HIV-1 gp41MN interaction (Human immunodeficiency virus type 1 group M subtype B, UniProt P05877); type: binding; conditions: ELISA, immobilized gp41MN, E2_340-Fc constant (5 µg/ml), increasing peptide; three independent experiments each in duplicate
Procedure: Flat-bottom, 96-well Microtest ELISA plates (Sarstedt, Germany) were coated overnight at 4°C with recombinant HIV-1 gp120 (0.5 µg/ml), gp41 (0.22 µg/ml) proteins, or with streptavidin (4 µg/ml) in coating buffer (0.1 M NaHCO3, 0.1 M Na2CO3, pH 9.87). Nonspecific binding was blocked (blocking buffer: 1% BSA, 0.1% Tween-20 in phosphate buffer, pH 7.2) for 1 h at room temperature, followed by washing steps (wash buffer: 0.1% Tween in phosphate buffer, pH 7.2). […] All plates were then incubated with recombinant E2_340-Fc or Fc protein in serial dilutions in sample buffer (phosphate buffer, pH 7.2) for 3 hr at room temperature. To perform the competitive ELISAs, the recombinant E2_340-Fc protein was adjusted at 5 µg/ml and the monoclonal gp41 antibodies (246-D, F240, T32, D50, 2F5, 4E10, Chessie 8 [all: NIH AIDS Research and Reference Reagent Program], and 5F3 [Polymun, Austria]) at 100 µM. After washing procedure, the plates were incubated for 1 h with polyclonal rabbit anti-human IgG peroxidase antibody (Dako, Germany) 1∶6000 in sample buffer and washed. Plates were developed with TMB peroxidase substrate solution (KPL, USA), or with OPD/H2O2 solution in the dark. Absorbances (ODs) were read at 450 or 492 nm, respectively, using a multi-channel photometer (ELISA-Reader AxSYM, Abbott Laboratory, USA).
(C) E2 peptides with increasing amounts were added to recombinant E2_340-Fc protein (at constant concentration) and then transferred to immobilized recombinant gp41MN.
Competitive binding of E2 and gp120 peptides (N35, N35s) with recombinant E2_340-Fc protein to immobilized recombinant gp41MN. Simultaneously to E2_340-Fc incubation peptides of E2 or gp120 were added with increasing amounts.

CD4 = CD4 surface expression, flow cytometry; type: cell-based, human; conditions: PBMC and TZM-bl cells; E2 peptides 25 µM, PMA 40 ng/ml; 6 hr; FACS; RTCN vs mock; average of two independent experiments each in triplicate
Procedure: (§1) PHA/IL-2-stimulated PBMC or TZM-bl cells were incubated with E2 peptides (25 µM), phorbol 12-myristate 13-acetate (PMA; 40 ng/ml), SDF-1α (1 µg/ml) or RANTES (50 nM) for 6 hr. CD4, CXCR4 and CCR5 surface expression was analyzed by using standard FACS staining protocols. Cells were washed with PBS and incubated for 30 min at 4°C with PE-labeled antibodies (CD4 clone SK3, CXCR4 clone 12G5, and CCR5 clone 2D7, BD Biosciences, Germany). Subsequently, washed cells were resuspended in PBS and analyzed with a FACSCalibur™ flow cytometer (BD Biosciences, Germany).
(§2) The non-HIV-1-inhibitory peptide P28 derived from the C-terminal part of E2 (residue 271 to 290), served as a negative control.
(§3) CD4, CXCR4 and CCR5 expression on PBMC (A) and TZM-bl cells (B) after preincubation with E2 peptides were determined by flow cytometry analysis. […] Percentages illustrate the ratio-to-cell-negative (RTCN) values that were calculated from the percentage of positive cells and the fluorescence intensity of peptide-incubated cells compared to mock-incubated cells. Columns show average values ±SD of two independent experiments each performed in triplicate. *: p<0.05; **: p<0.01 (mock- vs. inhibitor-incubated cells).

gp41MN = test: Competitive ELISA, E2 peptides versus gp41 mAbs on immobilized gp41MN; type: binding, HIV-1; conditions: increasing peptide, three independent experiments each in duplicate; for inhibition of F240 binding to gp41: mAb F240 (disulfide loop); for inhibition of F240 binding to gp41 / inhibition of T32 binding to gp41: immobilized gp41MN; for inhibition of T32 binding to gp41: mAb T32 (disulfide loop); for inhibition of gp41 binding of 246-D, D50, 5F3, 2F5, 4E10 and Chessie 8: mAbs other than F240 and T32, immobilized gp41MN
Procedure: Flat-bottom, 96-well Microtest ELISA plates (Sarstedt, Germany) were coated overnight at 4°C with recombinant HIV-1 gp120 (0.5 µg/ml), gp41 (0.22 µg/ml) proteins, or with streptavidin (4 µg/ml) in coating buffer (0.1 M NaHCO3, 0.1 M Na2CO3, pH 9.87). Nonspecific binding was blocked (blocking buffer: 1% BSA, 0.1% Tween-20 in phosphate buffer, pH 7.2) for 1 h at room temperature, followed by washing steps (wash buffer: 0.1% Tween in phosphate buffer, pH 7.2). Streptavidin-coated plates were then incubated with gp41 disulfide loop peptides (Loop36ox or Loop36s; 2.5 µM). All plates were then incubated with recombinant E2_340-Fc or Fc protein in serial dilutions in sample buffer (phosphate buffer, pH 7.2) for 3 hr at room temperature. To perform the competitive ELISAs, the recombinant E2_340-Fc protein was adjusted at 5 µg/ml and the monoclonal gp41 antibodies (246-D, F240, T32, D50, 2F5, 4E10, Chessie 8 [all: NIH AIDS Research and Reference Reagent Program], and 5F3 [Polymun, Austria]) at […]. After washing procedure, the plates were incubated for 1 h with polyclonal rabbit anti-human IgG peroxidase antibody (Dako, Germany) 1∶6000 in sample buffer and washed. Plates were developed with TMB peroxidase substrate solution (KPL, USA), or with OPD/H2O2 solution in the dark. Absorbances (ODs) were read at 450 or 492 nm, respectively, using a multi-channel photometer (ELISA-Reader AxSYM, Abbott Laboratory, USA).
(A) Illustration of gp41 variants (strains IIIB, MN) and peptides (N36, C34) used in ELISA as well as the binding epitopes of different monoclonal gp41 antibodies. Gp41 consists of the N-terminal fusion peptide (FP), the N- and C-heptad repeats (NHR, CHR) that are connected by the disulfide loop region (C-C loop), the membrane proximal external region (MPER), the α-helical transmembrane-spanning domain (TM), and the cytoplasmic tail (CP). […] Each sample was tested in triplicate. […] (C) Competitive binding of E2 peptides and different gp41 targeting mAbs to immobilized recombinant gp41MN. Simultaneously to mAb incubation E2 peptides were added with increasing amounts. […] The graphs show average values of three independent experiments each performed in duplicate.
Finally, we performed a direct binding assay with biotin-tagged 36mer gp41 disulfide loop peptides (residues from 588 to 623 according to HIV gp160HxB2) and GBV-C E2_340-Fc. We immobilized via streptavidin an oxidized (closed loop) or a linear variant of the disulfide loop, in which the cysteine residues were replaced with serine (Table S1) onto plates and the binding of graded concentrations of GBV-C E2_340-Fc was monitored with HRP-anti-human antibodies.

CXCR4 = CXCR4 surface expression, flow cytometry; type: cell-based, human; conditions: PBMC and TZM-bl cells; E2 peptides 25 µM, SDF-1α 1 µg/ml; 6 hr; FACS; RTCN vs mock; average of two independent experiments each in triplicate
Procedure: as §1, §2, §3

F240 = test: Unspecific binding of E2 peptides to antibody F240; conditions: data not shown

Chain of E2_340-Fc / HIV-1 gp41MN interaction (P05877 514-856): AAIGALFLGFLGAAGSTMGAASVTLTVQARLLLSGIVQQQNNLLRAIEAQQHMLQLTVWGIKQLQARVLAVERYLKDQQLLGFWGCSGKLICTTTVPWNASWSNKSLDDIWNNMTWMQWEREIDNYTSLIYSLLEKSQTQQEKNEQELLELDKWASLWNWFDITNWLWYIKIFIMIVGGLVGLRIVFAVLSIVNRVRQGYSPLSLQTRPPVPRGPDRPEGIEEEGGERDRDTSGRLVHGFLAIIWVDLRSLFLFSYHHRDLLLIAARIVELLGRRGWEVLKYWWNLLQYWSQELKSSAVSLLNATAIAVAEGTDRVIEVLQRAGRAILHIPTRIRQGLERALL

| Compound | competition with E2_340-Fc for gp41 binding [1] | CD4 surface presentation (CD4) | inhibition of F240 binding to gp41 (gp41MN) | inhibition of T32 binding to gp41 (gp41MN) | inhibition of gp41 binding of 246-D, D50, 5F3, 2F5, 4E10 and Chessie 8 (gp41MN) | CXCR4 surface presentation (CXCR4) | unspecific binding to antibody F240 (F240) |
| --- | --- | --- | --- | --- | --- | --- | --- |
| CC(=O)N[C@@H](CC(C)C)C(=O)N[C@@H](CS)C(=O)N[C@@H](CC(=O)O)C(=O)N[C@@H](CS)C(=O)N1CCC[C@H]1C(=O)N[C@@H](CC(N)=O)C(=O)NCC(=O)N1CCC[C@H]1C(=O)N[C@@H](Cc1c[nH]c2ccccc12)C(=O)N[C@H](C(=O)N[C@@H](Cc1c[nH]c2ccccc12)C(=O)N[C@H](C(=O)N1CCC[C@H]1C(=O)N[C@@H](C)C(=O)N[C@@H](Cc1ccccc1)C(=O)N[C@@H](CS)C(=O)N[C@@H](CCC(N)=O)C(=O)N[C@@H](C)C(=O)N[C@H](C(=O)NCC(=O)O)C(C)C)C(C)C)C(C)C [P6-2] | abrogated the protein-protein interaction between HIV-1 gp41 and GBV-C E2 in a dose-dependent manner | no relevant effect on HIV-1 receptor presentation | inhibited in a dose-dependent manner | inhibited in a dose-dependent manner | Of the eight antibodies, only the gp41 interaction of F240 and T32 was inhibited | no relevant effect on HIV-1 receptor presentation | No unspecific binding |
| Ac-WDRGNVTLLCDCPNGPWVWV [P4-7, 20 mer peptide presenting amino acids 37 to 56 of the GBV-C E2 protein] | abrogated the protein-protein interaction between HIV-1 gp41 and GBV-C E2 in a dose-dependent manner | no relevant effect on HIV-1 receptor presentation | inhibited in a dose-dependent manner | inhibited in a dose-dependent manner | Of the eight antibodies, only the gp41 interaction of F240 and T32 was inhibited | no relevant effect on HIV-1 receptor presentation | No unspecific binding |

From publication PMC3551756, “HIV-1 Fusion Is Blocked through Binding of GB Virus C E2D Peptides to the HIV-1 gp41 Disulfide Loop” (PLoS ONE, 2013)
